From patent US12071415B2, “Carbon monoxide prodrugs for the treatment of medical disorders” (Georgia State University Research Foundation, Inc., priority 2018, dated 2024)
Blank lines part the entries; values can stand above or below the molecule they belong to.

Assays:
[1] = pKa of the conjugate acid of the leaving group; no measurement described; cited from earlier work
[2] = NMR CO release experiments for formyl compounds; type: physicochemical; conditions: deuterated PBS or 20% DMSO-d6 in deuterated PBS; determined indirectly from ratio of formic acid formed
Experimental: Compounds 1-4 were tested for their CO release by NMR. Each compound was placed in deuterated PBS or 20% DMSO-d6 in deuterated PBS. CO release yield was indirectly determined by calculating the ratio of formic acid formed as a by-product of the competing hydrolysis reaction.

[3] = COP-1 fluorescent probe evaluation of CO release; type: physicochemical
Experimental: COP-1, a CO probe that is commonly employed in the literature to detect CO was used to evaluate the ability of different oxalyl-based compounds to release CO under aqueous solution at room temperature. Chloride was replaced with various leaving groups having different pKa values to survey the effect of pKa on CO release.
To a solution of the CO probe COP-1 (0.5 μM) in 3% DMSO in PBS, a solution of 1,2-bis(1,1-dioxido-3-oxobenzo[d]isothiazol-2(3H)-yl)ethane-1,2-dione in DMSO was added to form a 100 μM final solution concentration. The resulting mixture was incubated at 37° C., and the fluorescence emission intensity was recorded at different time points from […] with an excitation wavelength of 475 nm.

deoxy-myoglobin = assay: Two-compartment CO-myoglobin (Mb-CO) assay; type: physicochemical; conditions: DMSO/PBS, 37° C., 25 minutes
[4] = CO release profile of the activated charcoal formulation (GC headspace); type: physicochemical; conditions: 100 mg method A formulation, 3 mL PBS, 37° C.
Experimental: Activated charcoal comprising Compound 5 (100 mg) that was formulated by method A was put into a GC-headspace vial. PBS (3 mL) preheated to 37° C. was added and the vial was sealed and incubated at 37° C. At different time points, 250 μL of the headspace gas was withdrawn and injected to a gas chromatograph (Agilent 7820) equipped with a RESTEK packed molecular sieve column and a TCD detector. The CO release kinetic and yield were plotted (FIG. 23) based on the CO peak area and calibration curve.

HeLa cells = assay: CCK-8 cytotoxicity assay; type: cell-based; conditions: 0-100 μM, 1% DMSO in DMEM, 24 hours
Experimental: For the CCK-8 assay, HeLa cells were cultured in DMEM (Dulbecco's Modified Eagle's Medium) supplements with 10% fetal bovine serum (MidSci; SO1520HI) and 1% penicillin-streptomycin (Sigma-Aldrich; P4333) at 37° C. with 5% C02. Fresh medium was replenished every other day. The cells were treated with the compounds (0-100 μM) using 1% DMSO in DMEM for 24 hours.

[5] = Saturation adsorption assay on activated charcoal; type: physicochemical; conditions: in 10 mg activated charcoal, ACN, 25° C.
Experimental: A saturation adsorption assay was used to determine the adsorption capacity of the Compound 5 on activated charcoal. Compound 5 was dissolved in anhydrous ACN to form calibration samples with a concentration range from 0.019 to 0.3 mg/ml. The absorbance at 280 nm was measured with a UV-Vis spectrometer and plotted against the concentration to give the calibration curve (FIG. 21).
At room temperature (25° C.), 1-6 mg Compound 5 was mixed with 10 mg of activated charcoal and then 0.5 ml ACN was added. The mixture was shaken for 1 h followed by centrifuging at 12000×g for 5 min and the supernatant was diluted by 50 folds with ACN and measured with UV/Vis spectrometer at 280 nm to get the Compound 5 concentration in the supernatant. Adsorbed mass of Compound 5 was calculated by Formula I: Adsorbed mass=(Initial mass)−0.5*(supernatant concentration) (Formula I) Adsorbed mass=Y0+(Plateau-Y0)*(1−e^kX) (Formula II)

[6] = system: LPS induced TNF-α production in RAW264.7 cells; assay: Anti-inflammatory assay: TNF-α ELISA in LPS-stimulated RAW264.7 cell culture; type: cell-based; conditions: total 5 hour pretreatment (Compound 5 medium changed every 1 hour 5 times; Compound 7 single addition)
Experimental: The effect of the compounds of the present invention on CO-associated anti-inflammation activity was studied. Pro-inflammatory cytokine TNF-α in RAW264.7 cell culture upon stimulation by lipid polysaccharide (LPS) from E. coli was tested with ELSA assay. […] Due to the fast release kinetics of Compound 5, a repeated dosage protocol was used. Indicated concentration of Compound 5 was added to the culture medium right before addition to the cell and the fresh-made drug loaded culture medium was changed every 1 hour 5 times. Compound 7 has a longer half-life and therefore a single addition of the drug can fulfill the anti-inflammation effect. A Total 5 hour pretreatment was used throughout the experiments and the reported CO prodrug shown below (Ji, X., et al. Angew Chem Int Ed Engl 2016, 55 (51), 15846-15851) was used as the positive control: […]

[7] = HPLC kinetics of decomposition; type: physicochemical; conditions: 40% acetonitrile in PBS; 60% PBS (40% acetonitrile), 37° C.
Experimental: Compound 5 was tested for its rate of decomposition under physiological conditions. The followed samples were injected into the HPLC instrument i) saccharin (200 μM) dissolved in 40% acetonitrile in PBS; and b) incubated solution of the CO-releasing molecule Compound 5 dissolved in 40% acetonitrile in PBS at 37° C. at different time points. A 200 μL aliquot of incubated sample was placed inside a 0.5 mL vial followed by dilution with 200 μL of acetonitrile. The study was performed using the Shimadzu Prominence UFLC with a reversed-phase analytical column (Waters C18 3.5 μM, 4.6×100 mm) at 25° C. The flow rate was set at 1 mL/min. Gradient elution using acetonitrile and deionized water with 0.05% TFA was used to elute out the components of the sample. Elution conditions: 0-7 min 50% to 70% acetonitrile; injection volume 10 μL; detection wavelength of 254 and 280 nm. Experiments were done in triplicate.

[8] = Quantitative CO analysis by GC with thermal conductivity detector; type: physicochemical; conditions: 37° C.; for CO release yield: 4 to 1 acetonitrile: water, 1 h (FIG. 10); for CO yield, effect of pH: pH 1, pH 3 and pH 7.4 buffers in ACN:H2O (4:1), 1 hour (FIG. 11, 12)
Experimental: An Agilent […] GC System equipped with a thermal conductivity detector was used to detect and quantify CO release yield of the CO prodrugs. Using a gas tight syringe, specific volumes of the headspace of 20-mL headspace vials were sampled and transferred to the injector port maintained at 125° C. Helium was used as the carrier gas with a flow rate of 30 mL/min. Gaseous components of the headspace were separated by passing through a packed column with 60/80 Carboxen-1000 matrix support, […] (4.6 m)×1⁄8 in.×2.1 mm (Supelco). The column was heated 35° C. for 5 min then 225° C. at 20° C./min while the detector was held at 125° C.

[9] = LC-MS determination of oxalic acid (CO vs non-CO producing pathways); type: physicochemical; conditions: from a 200-μM sample
Experimental: LC-MS Studies: CO Production Vs Non-CO Producing Pathways The LCMS analysis was performed on an Agilent 1200 HPLC and 3200 API triple quadrupole mass spectrometer with electrospray ionization source in a negative mode. Selected ion mode was used for the detection of ions at m/z 182 for saccharin and m/z 89 for oxalic acid. A 5 uL of sample solution (compound 5) was directly delivered to the mass spectrometer ionization source with an Agilent autosampler and HPLC by mixing with 1% ACN in water mobile phase at 200 uL/min flow rate. No column was used. Three minutes were recorded and the peak area was integrated and the peak are ratio of PA (Oxalic acid)/PA(Saccharin) vs Concentration ratio (C(Saccharine)/C(Oxalic acid) was plotted as standard curve. The linear regression equation was generated for the calculation of the ratio of unknowns.

[10] = RP-HPLC stability study (solid and acetonitrile solution); type: physicochemical; conditions: exposed to ambient light and temperature
Text: These prodrugs are also stable as a solution of acetonitrile stored at room temperature for at least seven days.

Structure (SMILES): O=C(Oc1c(Cl)cc(Cl)cc1Cl)C(=O)Oc1c(Cl)cc(Cl)cc1Cl
pKa [1]: 6.23

Structure (SMILES): O=C(C(=O)N1C(=O)c2ccccc2C1=O)N1C(=O)c2ccccc2C1=O
pKa [1]: 8.3

Structure (SMILES): O=C(C(=O)n1ccnc1)n1ccnc1
pKa [1]: 14.5

Structure (SMILES): O=CN1C(=O)c2ccccc2S1(=O)=O [Compound 1, 3-Oxobenzo[d]isothiazole-2(3H)-carbaldehyde 1,1-dioxide]
CO Release Yield (%) [2]: 20%

Structure (SMILES): Cc1nn(C=O)c(=S)s1 [Compound 2, 5-Methyl-2-thioxo-1,3,4-thiadiazole-3(2H)-carbaldehyde]
increase in fluorescence with the COP-1 probe ([3]; after 10 minutes of incubation (FIG. 4)): 2.3 fold | CO Release Yield (%) [2]: 33% | formation of CO-myoglobin (UV-Vis spectral signature) (deoxy-myoglobin): showed the characteristic spectral signature for the formation of CO-myoglobin

Structure (SMILES): O=Cn1ccccc1=O [Compound 3, 2-Oxopyridine-1(2H)-carbaldehyde]
CO Release Yield (%) [2]: 20%

Structure (SMILES): C[N+](C)=c1ccn(C=O)cc1.[Br-] [Compound 4, N-(1-Formylpyridin-4(1H)-ylidene)-N-methylmethanaminium Bromide]
CO Release Yield (%) [2]: 34%

Structure (SMILES): O=C(C(=O)N1C(=O)c2ccccc2S1(=O)=O)N1C(=O)c2ccccc2S1(=O)=O [drawing 150]
pKa [1]: 1.6

Continued, in another order:

total CO release yield [4]: 81% | increase in fluorescence intensity with the COP-1 probe ([3]; after 3 h (FIG. 5), 100 μM compound, 0.5 μM COP-1, 3% DMSO in PBS, 37° C.): 4 fold | maximum adsorption amount on activated charcoal (plateau) [5]: 1.73 mg | half-life [7]: 1.28 ± 0.03 min | CO release yield [8]: 76%±6 | CO yield, effect of pH [8]: 60% to 30% | CO production estimated from oxalic acid [9]: about 75% | oxalic acid produced [9]: 47 µM | stable as a solid [10]: at least 24 days
Structure (SMILES): O=C(C(=O)N1C(=O)c2ccccc2S1(=O)=O)N1C(=O)c2ccccc2S1(=O)=O [Compound 5, 1,2-Bis(1,1-dioxido-3-oxobenzo[d]isothiazol-2(3H)-yl)ethane-1,2-dione]
toxicity to HeLa cells (cell survival) (HeLa cells): no toxicity to HeLa cells up to a 100 μM concentration | LPS induced TNF-α production [6]: inhibit LPS induced TNF-α production in a dose-dependent manner | formation of CO-myoglobin (UV-Vis spectral signature) (deoxy-myoglobin): showed the characteristic spectral signature for the formation of CO-myoglobin

half-life [7]: 9.5 ± 0.1 min | CO release yield [8]: 92%±3 | CO yield, effect of pH [8]: around 90%
Structure (SMILES): CC1=CC(=O)N(C(=O)C(=O)N2C(=O)C=C(C)OS2(=O)=O)S(=O)(=O)O1 [Compound 7, 1,2-Bis(6-methyl-2,2-dioxido-4-oxo-1,2,3-oxathiazin-3(4H)-yl)ethane-1,2-dione]
LPS induced TNF-α production [6]: inhibit LPS induced TNF-α production in a dose-dependent manner | formation of CO-myoglobin (UV-Vis spectral signature) (deoxy-myoglobin): showed the characteristic spectral signature for the formation of CO-myoglobin

CO release yield [8]: No CO nor CO2 were detected | CO2 yield ([8]; ACN:H2O (4:1), 1 hour (FIG. 10)): No CO nor CO2 were detected
Structure (SMILES): CC(C)(C)OC(=O)C(=O)N1C(=O)c2ccccc2S1(=O)=O [Compound 8, tert-Butyl 2-(1,1-Dioxido-3-oxobenzo[d]isothiazol-2(3H)-yl)-2-oxoacetate]

CO release yield [8]: no CO was detected
Structure (SMILES): CS(=O)(=O)N(C(=O)C(=O)N(C(=O)c1ccccc1)S(C)(=O)=O)C(=O)c1ccccc1 [Compound 9, N^1,N^2-Dibenzoyl-N^1,N^2-bis(methylsulfonyl)oxalamide]
